Measured values reported in patent publication US12306194B2, “Reagent for fluorescence imaging of lipid droplets in cell and tissue” (NATIONAL UNIVERSITY CORPORATION GUNMA UNIVERSITY, priority 2019, dated 2025).
Values joined by “and” are separate entries in the source; they are usually repeats but may differ in a detail not shown here. Identical values can stand only once.

Experiments:
[1] = Solubility / precipitation in water (physiological saline); type: physicochemical
[2] = Measurement of fluorescence lifetime in solvents; type: physicochemical
Description: The fluorescence lifetime (τf) of each compound in each solvent was measured using a compact fluorescence lifetime measurement apparatus (Quntaurus-Tau, manufactured by Hamamatsu Photonics K.K.).

[3] = Measurement of maximum absorption wavelength, maximum fluorescence wavelength and fluorescence quantum yield in solvents; type: physicochemical
Description: Using a luminescent quantum yield measurement apparatus ([…]-01, manufactured by Hamamatsu Photonics K.K.), the maximum absorption wavelength (λabs/nm), the maximum fluorescence wavelength (λflu/nm), and the fluorescence quantum yield (Φf) of the compound in each solvent were measured. The absorption spectrum was measured using an ultraviolet and visible spectrophotometer (Ubest-550, manufactured by JASCO Corporation), and the fluorescence emission spectrum was measured using a fluorescence spectrophotometer (F-7000, manufactured by Hitachi, Ltd.)

[4] = test system: lipid droplets in a body tissue and adipose tissue; experiment: Non-laparotomic imaging of lipid droplets in a fatty-liver model nude mouse; type: in vivo; details: 50 nmol, tail vein
Description: Non-laparotomic imaging of lipid droplets in a body tissue, and of an adipose tissue, using PC6S is described below. A nude mouse was fed with a high-fat diet for 2 weeks to prepare a fatty-liver model mouse. PC6S (50 nmol) was administered from the tail vein of the nude mouse under anesthesia. Images were taken using a simple in vivo imaging device (Discovery (registered trademark); INDEC BioSystem) (for the nude mice lying on its back). An excitation wavelength of 450 to 490 nm and a monitoring wavelength of 520 nm or higher were employed. […] In order to confirm that the fluorescence was found from the liver, an image was taken after laparotomy. […] It was thus shown that the fluorescence imaging reagent of the present invention is useful even without laparotomy.

[5] = test system: adipose tissue and lipid droplets; experiment: Fluorescence imaging of adipose tissues and lipid droplets in a mouse; type: in vivo, mouse (BALB/cAJcl); details: 50 nmol
Description: Fluorescence imaging of lipid droplets in a body tissue, and of an adipose tissue, using PC6S is described below. […] Therefore, PC6S cannot be administered to mice. In view of this, 5 mM stock solution was added (at 10% in terms of the volume ratio) to physiological saline supplemented with 10% bovine serum albumin. […] Regarding administration of MNs-NB, a stock solution in DMSO is directly administered to mice. Since administration of DMSO may cause death of mice from shock, the administration method in the present invention is thought to be a safer method. Here, 100 to 200 μL of 500 μM solution (50 to 100 nmol) was administered to the tail vein of a mouse under anesthesia, and a fluorescence imaging experiment was carried out using a confocal laser microscope (excitation wavelength, 488 nm; monitoring wavelength, 510 to 560 nm). In the present experiment, a microscope capable of acquiring fluorescence lifetime images as well as fluorescence intensity images (FLIM: fluorescence lifetime imaging microscope) (Simple-Tau-150-DX; Becker & Hickl) was used. The animal experiment was carried out in accordance with the animal experiment safety regulations in Gunma University.
In an individual, various adipose tissues and lipid droplets are present. Their imaging was carried out using PC6S. […]

[6] = test system: 3T3-L1 cells (adipocytes); experiment: Intracellular photostability under excitation light in 3T3-L1 cells; type: cell-based
Description: (§1) Using a fluorescence microscope (IX71, manufactured by Olympus Corporation), fluorescence imaging images of cells were acquired over time, and the photostability (It/I0) and the retention property were measured.
The photostability and the retention property are important factors in long-term measurement for, for example, tracing the processes of formation, fusion, and degradation of lipid droplets. Each fluorescent reagent was added to 3T3-L1 cells (adipocytes) to a final concentration of 100 nM, and the cells were cultured for 30 minutes. After washing the cells, the cells were irradiated with an excitation light required for imaging (450 to 500 nm; for LipiDye, an excitation wavelength of 400 to 440 nm), to evaluate the photostability. By regarding the time immediately after the irradiation as Second 0, imaging images were acquired at 20-second intervals for analysis of the image intensity.

[7] = test system: 3T3-L1 cells (adipocytes); experiment: Intracellular retention property in 3T3-L1 cells; type: cell-based
Description: as §1
For evaluation of the intracellular retention property of each reagent, each fluorescent reagent was added to 3T3-L1 cells (adipocytes) to a final concentration of 100 nM (for Lipi-Green, 500 nM), and imaging images were acquired after 30 minutes of culture and 24 hours after washing away of the reagent.

fixed HeLa cells = experiment: Fluorescence imaging of fixed HeLa cells; type: cell-based; details: 100 nM, 30 minutes, HeLa fixed in 4% paraformaldehyde-phosphate buffer
Description: The fluorescence imaging reagent of the present invention is applicable to, and allows the detection in, unfixed biological samples and living bodies. The reagent is, however, also useful for fixed samples. HeLa cells cultured in the presence of 400 μM oleic acid for 48 hours were fixed in 4% paraformaldehyde-phosphate buffer for 20 minutes, and PC6S was added thereto to a final concentration of 100 nM, followed by performing culture for 30 minutes, washing the cultured cells, and then acquiring a fluorescence imaging image using an inverted fluorescence microscope in the same manner as in Example 2.

[8] = test system: lipid droplets in HeLa cells; experiment: Multicolor imaging and time-course imaging of lipid droplet formation in HeLa cells; type: cell-based
Description: Further, HeLa cells were cultured for 30 minutes in a medium to which PC6S was added to a final concentration of 100 nM, and PC6S unincorporated in the cells was removed, followed by acquiring a fluorescence imaging image (Hour 0) using an inverted fluorescence microscope in the same manner as in Example 2. The cells were cultured in the presence of 400 μM oleic acid for 24 hours, and their fluorescence imaging images were acquired 4, 8, 12, and 24 hours later.

Question: For `CCN(CC)c1ccc2cc3cc(-c4nc5ccccc5s4)c(=O)oc3cc2c1` [PC6S, 3-(Benzo[d]thiazol-2-yl)-8-(diethylamino)-2H-benzo[g]chromen-2-one], which “solubility in water (physiological saline)” value [1] is on record?
Answer: Its value is “remarkably low solubility”.

Question: And the precipitation ([1]; 5 mM stock solution added at 10% volume ratio to physiological saline supplemented with 10% bovine serum albumin)?
Answer: The precipitation was “precipitation of PC6S could be suppressed”.

Question: And the precipitation ([1]; 5 mM stock solution in DMSO added at 10% volume ratio to physiological saline)?
Answer: Its precipitation is “precipitation of PC6S occurs”.

Question: What about the “τf (fluorescence lifetime)” value ([2]; in Bu2O (dibutyl ether)) of the same molecule?
Answer: Its value is 2.91 ns.

Question: And the “τf (fluorescence lifetime)” value ([2]; in DMSO)?
Answer: Its value is 3.46 ns.

Question: And the “τf (fluorescence lifetime)” value ([2]; in EtOAc)?
Answer: Its value is 3.41 ns.

Question: And the “τf (fluorescence lifetime)” value ([2]; in MeCN)?
Answer: The value was 3.72 ns.

Question: And the “τf (fluorescence lifetime)” value ([2]; in n-Hexane)?
Answer: Its value is 2.55 ns.

Question: What about the “Φf (fluorescence quantum yield)” value ([3]; in Bu2O (dibutyl ether)) of the same molecule?
Answer: Its value is 0.88.

Question: And the “λmax abs (maximum absorption wavelength)” value ([3]; in Bu2O (dibutyl ether))?
Answer: Its value is 468 nm.

Question: What about the “λmax flu (maximum fluorescence wavelength)” value (“λmax flu” for short) ([3]; in Bu2O (dibutyl ether)) of the same molecule?
Answer: The value was 538 nm.

Question: And the “Φf (fluorescence quantum yield)” value ([3]; in DMSO)?
Answer: Its value is 0.83.

Question: What about the “λmax abs (maximum absorption wavelength)” value ([3]; in DMSO) of the same molecule?
Answer: The value was 504 nm.

Question: And the “λmax flu” value ([3]; in DMSO)?
Answer: The value was 642 nm.

Question: What about the “Φf (fluorescence quantum yield)” value ([3]; in EtOAc) of the same molecule?
Answer: Its value is 0.84.

Question: What about the “λmax abs (maximum absorption wavelength)” value ([3]; in EtOAc) of the same molecule?
Answer: Its value is 483 nm.

Question: What about the “λmax flu” value ([3]; in EtOAc) of the same molecule?
Answer: The value was 585 nm.

Question: And the “Φf (fluorescence quantum yield)” value ([3]; in MeCN)?
Answer: The value was 0.80.

Question: What about the “λmax abs (maximum absorption wavelength)” value ([3]; in MeCN) of the same molecule?
Answer: The value was 492 nm and 493 nm.

Question: And the “λmax flu” value ([3]; in MeCN)?
Answer: Its value is 625 nm.

Question: What about the fluorescence quantum yield ([3]; in any of the solvents of Table 1) of the same molecule?
Answer: Its fluorescence quantum yield is “not less than 0.8”.

Question: And the “Φf (fluorescence quantum yield)” value ([3]; in n-Hexane)?
Answer: The value was 0.89.

Question: And the “λmax abs (maximum absorption wavelength)” value ([3]; in n-Hexane)?
Answer: Its value is 455 nm.

Question: What about the “λmax flu” value ([3]; in n-Hexane) of the same molecule?
Answer: Its value is 498 nm.

Question: And the laparotomic imaging ([4]; after laparotomy)?
Answer: The laparotomic imaging was “Fluorescence derived from PC6S was found in the liver”.

Question: What about the non-laparotomic imaging ([4]; without laparotomy) of the same molecule?
Answer: Its non-laparotomic imaging is “Fluorescence derived from PC6S was found around the liver”.

Question: What about the “fluorescence imaging of kidney” value [5] of the same molecule?
Answer: The value was “small lipid droplets distributed in tubular cells could be imaged”.

Question: And the “fluorescence imaging of subcutaneous, abdominal, pericardial adipose tissue, skeletal muscle, cardiac muscle, kidney” value [5]?
Answer: Its value is “Fluorescence derived from PC6S was found from sites containing lipid accumulated therein”.

Question: What about the “photostability (fluorescence intensity ratio It/I0 against irradiation time)” value ([6]; 100 nM, 3T3-L1 cells, relative to the commercially available reagents) of the same molecule?
Answer: Its value is “highest photostability”.

Question: What about the Photostability ([6]; summary grade, Table 3) of the same molecule?
Answer: Its Photostability is “⊚”.

Question: What about the intracellular retention property ([7]; 100 nM (Lipi-Green 500 nM), 3T3-L1 cells, 24 hours after washing away of the reagent) of the same molecule?
Answer: Its intracellular retention property is “high intracellular retention properties”.

Question: And the intracellular retention property ([7]; summary grade, Table 3)?
Answer: The intracellular retention property was “⊚”.

Question: And the “fluorescence detection in fixed cells” value (fixed HeLa cells)?
Answer: Its value is “fluorescence of PC6S could be detected also in the fixed HeLa cells”.

Question: What about the “imaging of lipid droplet formation over time” value ([8]; 100 nM, then 400 μM oleic acid, 4, 8, 12 and 24 hours) of the same molecule?
Answer: The value was “the process of gradual formation of lipid droplets could be imaged over time”.

Question: And the multicolor imaging ([8]; combined use with Hoechst 33342 and Mito tracker red)?
Answer: Its multicolor imaging is “multicolor imaging was possible”.
